IC50 data for three compounds are collected here from publication doi:10.1101/2023.02.03.527073v1 (biorxiv, 2023).

Assay [1] concerns the target T1, human Brd4 BD1 (hBrd4 BD1) (Homo sapiens, UniProt O60885). The assay can be described thus: HTRF competition with biotinylated H4ac4 peptide. The assay is classed as binding. On the technique in general: In TR-FRET formats the signal depends on donor and acceptor labels being close together.
Assay [2] deals with T2, CgBdf1 BD1 (CgBD1) (Nakaseomyces glabratus, UniProt Q6FWV7).
T2 sequence (Q6FWV7 100-228): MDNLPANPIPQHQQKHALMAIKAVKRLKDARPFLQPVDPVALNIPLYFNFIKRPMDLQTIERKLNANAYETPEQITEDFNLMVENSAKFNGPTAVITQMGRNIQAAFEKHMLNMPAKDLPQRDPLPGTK
The assay can be described thus: HTRF competition with biotinylated H4ac4 peptide. The class given is binding.

Assay [3] deals with T3, human Brd4 BD2 (hBrd4 BD2) (Homo sapiens, UniProt O60885). The assay can be described thus: HTRF competition with biotinylated H4ac4 peptide. The class given is binding.
Assay [4] concerns the target T4, CgBdf1 BD2 (CgBD2) (Nakaseomyces glabratus, UniProt Q6FWV7).
T4 sequence (Q6FWV7 269-391): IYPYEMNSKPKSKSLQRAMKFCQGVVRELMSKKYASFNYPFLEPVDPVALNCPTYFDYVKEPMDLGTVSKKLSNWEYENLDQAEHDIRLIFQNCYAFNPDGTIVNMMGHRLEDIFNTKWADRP
The assay can be described thus: HTRF competition with biotinylated H4ac4 peptide. The class given is binding.

Assay [5] has as its target T2, CgBdf1 BD1 (CgBD1). The assay can be described thus: biochemical.
Assay [6] addresses T4, CgBdf1 BD2 (CgBD2). The assay can be described thus: biochemical.
Assay [7] addresses T1, human Brd4 BD1 (hBrd4 BD1). The assay can be described thus: biochemical.
Assay [8] deals with T3, human Brd4 BD2 (hBrd4 BD2). The assay can be described thus: biochemical.

Structures are written as SMILES. Bounds are passed on as bounds.

One may read the IC50 as the concentration at which inhibition is half-maximal. `Cc1ccc(-c2nnc(C)c(NCc3cccs3)n2)cc1` [compound 24, 24]: the IC50 is greater than 20 µM in assay [1], 2230 ± 260 nM on CgBdf1 BD1 (CgBD1) [2], greater than 20 µM in assay [3] and greater than 20000 nM on CgBdf1 BD2 (CgBD2) [4].

As to `CC(=O)N1CCc2[nH]c3ccc(C(=O)Nc4ccc(N5CCOCC5)cc4)cc3c2C1` [compound 29, 29], the concentration for half-maximal inhibition (IC50) at CgBdf1 BD1 (CgBD1) [2] amounted to 1810 ± 1140 nM; on CgBdf1 BD2 (CgBD2) [4], 2060 ± 230 nM; on CgBdf1 BD1 (CgBD1) [5], 1100 nM; against CgBdf1 BD2 (CgBD2) [6], 2300 nM; in assay [7] it was 2900 nM; in assay [8], 440 nM.

For `Cn1nccc1C(=O)NCc1ccc(-c2nc(-c3cccs3)no2)s1` [compound 63, 63], the IC50 in assay [1] is 25.9 ± 7.9 µM; at CgBdf1 BD1 (CgBD1) [2] it was 610 ± 100 nM; in assay [7] it was greater than 20000 nM.
